*1 amine or outer side, *2 acyl side, *3 side chain or, on linkers, in order; H or OH if unused. Where a SMILES comes first, the peptide text is derived from it. Bridges are numbered along the chain shown (N, C = ends). [ ]: non-standard residue; d: D form. Phe(3,4,5-F3) = N[C@@H](Cc1cc(F)c(F)c(F)c1)C(=O)O; d(cisHyp) = O=C(O)[C@H]1C[C@@H](O)CN1; NMeF = CN[C@@H](Cc1ccccc1)C(=O)O; X1 = O=C([C@H]1COCCN1[*:1])[*:2]; dPip(4-aza) = O=C(O)[C@H]1CNCCN1; NMeNle = CCCC[C@H](NC)C(=O)O; hSer = N[C@@H](CCO)C(=O)O; Orn = NCCC[C@H](N)C(=O)O
Each compound was assayed against T1, Human PD-L1/PD-1 (Homo sapiens, UniProt Q9NZQ7) (assay: HTRF Human PD-L1/PD-1 binding assay (PD-1-Ig/PD-L1-His)). Details: PD-L1-His 10 nM, PD-1-Ig 20 nM; class symbol; read-out: HTRF Human PD-L1/PD-1 Binding Assay IC50 Range.
T1 construct: TVMV protease cleavage site (C); made in house; host or cells: HEK293T cells
T1 sequence (Q9NZQ7 with tags, fused parts or gaps): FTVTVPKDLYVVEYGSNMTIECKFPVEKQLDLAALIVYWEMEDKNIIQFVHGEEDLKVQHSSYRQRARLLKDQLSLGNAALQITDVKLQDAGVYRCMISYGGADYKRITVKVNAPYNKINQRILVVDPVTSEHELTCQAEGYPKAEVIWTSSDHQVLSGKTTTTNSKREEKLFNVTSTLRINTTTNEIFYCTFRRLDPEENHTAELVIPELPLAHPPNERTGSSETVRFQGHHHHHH
Summary of the method: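 Soluble HEK293T-expressed proteins: hPD-L1-His 10 nM, hPD-1-Ig 20 nM final. Cpd + PD-L1 15 min, + PD-1 15 min, + Eu anti-Ig 1 nM/APC anti-His 20 nM 30 min. Buffer dPBS, 0.1% BSA, 0.05% Tween-20. TR-FRET 665/620.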

SMILES | IC50 [nM]
CCCC[C@H]1C(=O)N2C[C@H](O)C[C@@H]2C(=O)N[C@@H](CC(=O)O)C(=O)N[C@@H](C(C)C)C(=O)N(C)[C@@H](Cc2ccccc2)C(=O)N[C@@H](CC(=O)O)C(=O)N2CCC[C@@H]2C(=O)N[C@@H](Cc2c[nH]c3ccccc23)C(=O)N[C@@H](Cc2ccc(O)cc2)C(=O)N[C@@H](CCO)C(=O)N[C@H](C(=O)NCC(N)=O)CSCC(=O)N[C@@H](Cc2cc(F)c(F)c(F)c2)C(=O)N(C)[C@@H](Cc2ccccc2)C(=O)N1C [Example 10155] ({CH2CO}-[Phe(3,4,5-F3)][NMeF][NMeNle][d(cisHyp)]DV[NMeF]D[dP]WY[hSer]CG-NH2; thioether N-13) | 1 to 9.9
CCCC[C@H]1C(=O)N2C[C@H](O)C[C@@H]2C(=O)N[C@@H](CC(=O)O)C(=O)N[C@@H](C(C)C)C(=O)N(C)[C@@H](Cc2ccccc2)C(=O)N[C@@H](CCC(=O)O)C(=O)N2CCOC[C@@H]2C(=O)N[C@@H](Cc2c[nH]c3ccccc23)C(=O)N[C@@H](Cc2ccc(O)cc2)C(=O)N[C@@H](CCO)C(=O)N[C@H](C(=O)NCC(N)=O)CSCC(=O)N[C@@H](Cc2cc(F)c(F)c(F)c2)C(=O)N(C)[C@@H](Cc2ccccc2)C(=O)N1C [Example 10156] ({CH2CO}-[Phe(3,4,5-F3)][NMeF][NMeNle][d(cisHyp)]DV[NMeF]E[X1]WY[hSer]CG-NH2; thioether N-13) | 1 to 9.9
CCCC[C@H]1C(=O)N2C[C@H](O)C[C@@H]2C(=O)N[C@@H](CC(=O)O)C(=O)N[C@@H](C(C)C)C(=O)N(C)[C@@H](Cc2ccccc2)C(=O)N[C@@H](CCCN)C(=O)N2CCOC[C@@H]2C(=O)N[C@@H](Cc2c[nH]c3ccccc23)C(=O)N[C@@H](Cc2ccc(O)cc2)C(=O)N[C@@H](CCO)C(=O)N[C@H](C(=O)NCC(N)=O)CSCC(=O)N[C@@H](Cc2cc(F)c(F)c(F)c2)C(=O)N(C)[C@@H](Cc2ccccc2)C(=O)N1C [Example 10158] ({CH2CO}-[Phe(3,4,5-F3)][NMeF][NMeNle][d(cisHyp)]DV[NMeF][Orn][X1]WY[hSer]CG-NH2; thioether N-13) | 1 to 9.9
CCCC[C@H]1C(=O)N2C[C@H](O)C[C@@H]2C(=O)N[C@@H](CC(=O)O)C(=O)N[C@@H](C(C)C)C(=O)N(C)[C@@H](Cc2ccccc2)C(=O)N[C@@H](Cc2ccc(O)cc2)C(=O)N2CCOC[C@@H]2C(=O)N[C@@H](Cc2c[nH]c3ccccc23)C(=O)N[C@@H](Cc2ccc(O)cc2)C(=O)N[C@@H](CCO)C(=O)N[C@H](C(=O)NCC(N)=O)CSCC(=O)N[C@@H](Cc2cc(F)c(F)c(F)c2)C(=O)N(C)[C@@H](Cc2ccccc2)C(=O)N1C [Example 10159] ({CH2CO}-[Phe(3,4,5-F3)][NMeF][NMeNle][d(cisHyp)]DV[NMeF]Y[X1]WY[hSer]CG-NH2; thioether N-13) | 1 to 9.9
CCCC[C@H]1C(=O)N2C[C@H](O)C[C@@H]2C(=O)N[C@@H](CC(=O)O)C(=O)N[C@@H](C(C)C)C(=O)N(C)[C@@H](Cc2ccccc2)C(=O)N[C@@H](Cc2ccc(O)cc2)C(=O)N2CCOC[C@@H]2C(=O)N[C@@H](Cc2c[nH]c3ccccc23)C(=O)N[C@@H](Cc2ccc(O)cc2)C(=O)N[C@@H](CCOC)C(=O)N[C@H](C(=O)NCC(N)=O)CSCC(=O)N[C@@H](Cc2cc(F)c(F)c(F)c2)C(=O)N(C)[C@@H](Cc2ccccc2)C(=O)N1C [Example 10160] ({CH2CO}-[Phe(3,4,5-F3)][NMeF][NMeNle][d(cisHyp)]DV[NMeF]Y[X1]WY[hSer](Me)CG-NH2; thioether N-13) | 1 to 9.9
CCCC[C@H]1C(=O)N2C[C@H](O)C[C@@H]2C(=O)N[C@@H](CC(=O)O)C(=O)N[C@@H](C(C)C)C(=O)N(C)[C@@H](Cc2ccccc2)C(=O)N[C@@H](CC(=O)O)C(=O)N2CCOC[C@@H]2C(=O)N[C@@H](Cc2c[nH]c3ccccc23)C(=O)N[C@@H](Cc2ccc(O)cc2)C(=O)N[C@@H](CCOC)C(=O)N[C@H](C(=O)NCC(N)=O)CSCC(=O)N[C@@H](Cc2cc(F)c(F)c(F)c2)C(=O)N(C)[C@@H](Cc2ccccc2)C(=O)N1C [Example 10161] ({CH2CO}-[Phe(3,4,5-F3)][NMeF][NMeNle][d(cisHyp)]DV[NMeF]D[X1]WY[hSer](Me)CG-NH2; thioether N-13) | 1 to 9.9
CCCC[C@H]1C(=O)N2C[C@H](O)C[C@@H]2C(=O)N[C@@H](CC(=O)O)C(=O)N[C@@H](C(C)C)C(=O)N(C)[C@@H](Cc2ccccc2)C(=O)N[C@@H](CCCN)C(=O)N2CCOC[C@@H]2C(=O)N[C@@H](Cc2c[nH]c3ccccc23)C(=O)N[C@@H](Cc2ccc(O)cc2)C(=O)N[C@@H](CCOC)C(=O)N[C@H](C(=O)NCC(N)=O)CSCC(=O)N[C@@H](Cc2cc(F)c(F)c(F)c2)C(=O)N(C)[C@@H](Cc2ccccc2)C(=O)N1C [Example 10162] ({CH2CO}-[Phe(3,4,5-F3)][NMeF][NMeNle][d(cisHyp)]DV[NMeF][Orn][X1]WY[hSer](Me)CG-NH2; thioether N-13) | 1 to 9.9
CCCC[C@H]1C(=O)N2C[C@H](O)C[C@@H]2C(=O)N[C@@H](CC(=O)O)C(=O)N[C@@H](C(C)C)C(=O)N(C)[C@@H](Cc2ccccc2)C(=O)N[C@@H](CCC(=O)O)C(=O)N2CCNC[C@@H]2C(=O)N[C@@H](Cc2c[nH]c3ccccc23)C(=O)N[C@@H](Cc2ccc(O)cc2)C(=O)N[C@@H](CC(C)C)C(=O)N[C@H](C(=O)NCC(N)=O)CSCC(=O)N[C@@H](Cc2cc(F)c(F)c(F)c2)C(=O)N(C)[C@@H](Cc2ccccc2)C(=O)N1C [Example 10163] ({CH2CO}-[Phe(3,4,5-F3)][NMeF][NMeNle][d(cisHyp)]DV[NMeF]E[dPip(4-aza)]WYLCG-NH2; thioether N-13) | 10 to 99.9
CCCC[C@H]1C(=O)N2C[C@H](O)C[C@@H]2C(=O)N[C@@H](CC(=O)O)C(=O)N[C@@H](C(C)C)C(=O)N(C)[C@@H](Cc2ccccc2)C(=O)N[C@@H](CCC(=O)O)C(=O)N2CCNC[C@@H]2C(=O)N[C@@H](Cc2c[nH]c3ccccc23)C(=O)N[C@@H](Cc2ccc(O)cc2)C(=O)N[C@@H](CCCCN)C(=O)N[C@H](C(=O)NCC(N)=O)CSCC(=O)N[C@@H](Cc2cc(F)c(F)c(F)c2)C(=O)N(C)[C@@H](Cc2ccccc2)C(=O)N1C [Example 10164] ({CH2CO}-[Phe(3,4,5-F3)][NMeF][NMeNle][d(cisHyp)]DV[NMeF]E[dPip(4-aza)]WYKCG-NH2; thioether N-13) | 1 to 9.9
CCCC[C@H]1C(=O)N2C[C@H](O)C[C@@H]2C(=O)N[C@@H](CC(=O)O)C(=O)N[C@@H](C(C)C)C(=O)N(C)[C@@H](Cc2ccccc2)C(=O)N[C@@H](CCC(=O)O)C(=O)N2CCNC[C@@H]2C(=O)N[C@@H](Cc2c[nH]c3ccccc23)C(=O)N[C@@H](Cc2ccc(O)cc2)C(=O)N[C@@H](CCO)C(=O)N[C@H](C(=O)NCC(N)=O)CSCC(=O)N[C@@H](Cc2cc(F)c(F)c(F)c2)C(=O)N(C)[C@@H](Cc2ccccc2)C(=O)N1C [Example 10165] ({CH2CO}-[Phe(3,4,5-F3)][NMeF][NMeNle][d(cisHyp)]DV[NMeF]E[dPip(4-aza)]WY[hSer]CG-NH2; thioether N-13) | 1 to 9.9
CCCC[C@H]1C(=O)N2C[C@H](O)C[C@@H]2C(=O)N[C@@H](CC(=O)O)C(=O)N[C@@H](C(C)C)C(=O)N(C)[C@@H](Cc2ccccc2)C(=O)N[C@@H](CCC(=O)O)C(=O)N2CCNC[C@@H]2C(=O)N[C@@H](Cc2c[nH]c3ccccc23)C(=O)N[C@@H](Cc2ccc(O)cc2)C(=O)N[C@@H](CCCN)C(=O)N[C@H](C(=O)NCC(N)=O)CSCC(=O)N[C@@H](Cc2cc(F)c(F)c(F)c2)C(=O)N(C)[C@@H](Cc2ccccc2)C(=O)N1C [Example 10166] ({CH2CO}-[Phe(3,4,5-F3)][NMeF][NMeNle][d(cisHyp)]DV[NMeF]E[dPip(4-aza)]WY[Orn]CG-NH2; thioether N-13) | 1 to 9.9
CCCC[C@H]1C(=O)N2CCNC[C@@H]2C(=O)N[C@@H](CC(=O)O)C(=O)N[C@@H](C(C)C)C(=O)N(C)[C@@H](Cc2ccccc2)C(=O)N[C@@H](CCC(=O)O)C(=O)N2C[C@H](O)C[C@@H]2C(=O)N[C@@H](Cc2c[nH]c3ccccc23)C(=O)N[C@@H](Cc2ccc(O)cc2)C(=O)N[C@@H](CC(C)C)C(=O)N[C@H](C(=O)NCC(N)=O)CSCC(=O)N[C@@H](Cc2cc(F)c(F)c(F)c2)C(=O)N(C)[C@@H](Cc2ccccc2)C(=O)N1C [Example 10167] ({CH2CO}-[Phe(3,4,5-F3)][NMeF][NMeNle][dPip(4-aza)]DV[NMeF]E[d(cisHyp)]WYLCG-NH2; thioether N-13) | 1 to 9.9
CCCC[C@H]1C(=O)N2C[C@H](O)C[C@@H]2C(=O)N[C@@H](CC(=O)O)C(=O)N[C@@H](C(C)C)C(=O)N(C)[C@@H](Cc2ccccc2)C(=O)N[C@@H](Cc2ccc(O)cc2)C(=O)N2CCNC[C@@H]2C(=O)N[C@@H](Cc2c[nH]c3ccccc23)C(=O)N[C@@H](Cc2ccc(O)cc2)C(=O)N[C@@H](CC(C)C)C(=O)N[C@H](C(=O)NCC(N)=O)CSCC(=O)N[C@@H](Cc2cc(F)c(F)c(F)c2)C(=O)N(C)[C@@H](Cc2ccccc2)C(=O)N1C [Example 10168] ({CH2CO}-[Phe(3,4,5-F3)][NMeF][NMeNle][d(cisHyp)]DV[NMeF]Y[dPip(4-aza)]WYLCG-NH2; thioether N-13) | 1 to 9.9

Same assay, conditions: PD-L1-His 10 nM, PD-1-Ig 20 nM; read-out: HTRF Human PD-L1/PD-1 Binding Assay IC50

SMILES | IC50 [nM]
CCCC[C@H]1C(=O)N2C[C@H](O)C[C@@H]2C(=O)N[C@@H](CC(=O)O)C(=O)N[C@@H](C(C)C)C(=O)N(C)[C@@H](Cc2ccccc2)C(=O)N[C@@H](CC(=O)O)C(=O)N2CCOC[C@@H]2C(=O)N[C@@H](Cc2c[nH]c3ccccc23)C(=O)N[C@@H](Cc2ccc(O)cc2)C(=O)N[C@@H](CCO)C(=O)N[C@H](C(=O)NCC(N)=O)CSCC(=O)N[C@@H](Cc2cc(F)c(F)c(F)c2)C(=O)N(C)[C@@H](Cc2ccccc2)C(=O)N1C [Example 10157] ({CH2CO}-[Phe(3,4,5-F3)][NMeF][NMeNle][d(cisHyp)]DV[NMeF]D[X1]WY[hSer]CG-NH2; thioether N-13) | 4.1
